In one test the target is T1, human TLR7 (Homo sapiens, UniProt Q9NYK1).
T1 construct: host or cells: HEK-Blue TLR7 cells (engineered human embryonic kidney cells)
T1 sequence (Q9NYK1 27-1049): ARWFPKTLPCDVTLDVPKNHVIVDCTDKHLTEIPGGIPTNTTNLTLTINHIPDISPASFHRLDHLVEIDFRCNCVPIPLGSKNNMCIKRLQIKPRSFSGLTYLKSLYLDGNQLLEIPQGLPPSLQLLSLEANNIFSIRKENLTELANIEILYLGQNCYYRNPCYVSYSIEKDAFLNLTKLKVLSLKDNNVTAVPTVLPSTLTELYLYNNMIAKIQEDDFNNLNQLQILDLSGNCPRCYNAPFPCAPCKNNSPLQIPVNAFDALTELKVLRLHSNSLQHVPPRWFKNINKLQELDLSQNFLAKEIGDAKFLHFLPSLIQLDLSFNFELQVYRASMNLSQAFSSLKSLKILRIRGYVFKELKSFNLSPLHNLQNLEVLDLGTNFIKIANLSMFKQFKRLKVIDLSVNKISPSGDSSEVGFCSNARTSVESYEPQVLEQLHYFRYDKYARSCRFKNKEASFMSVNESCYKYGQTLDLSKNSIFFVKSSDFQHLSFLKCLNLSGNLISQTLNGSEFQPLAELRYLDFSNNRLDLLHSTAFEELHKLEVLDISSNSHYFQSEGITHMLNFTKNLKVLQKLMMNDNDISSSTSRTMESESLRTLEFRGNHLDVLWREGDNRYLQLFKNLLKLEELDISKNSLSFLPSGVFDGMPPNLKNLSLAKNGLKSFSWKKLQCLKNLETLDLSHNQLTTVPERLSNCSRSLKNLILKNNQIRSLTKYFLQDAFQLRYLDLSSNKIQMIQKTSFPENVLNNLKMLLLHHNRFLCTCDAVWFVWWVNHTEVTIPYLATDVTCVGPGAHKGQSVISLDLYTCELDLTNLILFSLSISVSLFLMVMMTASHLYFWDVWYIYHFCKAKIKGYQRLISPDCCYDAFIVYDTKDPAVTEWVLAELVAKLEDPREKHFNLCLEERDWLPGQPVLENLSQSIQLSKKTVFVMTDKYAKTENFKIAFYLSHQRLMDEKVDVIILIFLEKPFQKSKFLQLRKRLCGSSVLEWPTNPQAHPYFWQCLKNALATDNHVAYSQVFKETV
Put plainly: HEK-Blue TLR7 reporter assay (SEAP reporter). In kind it is cell-based. The note with it: HEK-Blue TLR7 cells, 18 h treatment, SEAP readout; average if more than one assay; read-out: TLR7 Agonism HEK Blue ™ Assay EC50. An excerpt: Table A presents biological activity data for compounds disclosed herein. One set of data relates TLR7 agonism activity using the HEK-Blue™ TLR7 reporter assay, as described in Example 11 hereinbelow. Another set of data relates to the induction of interleukin 6 (IL-6), a cytokine that plays an important role in the TLR7 pathway. […] In some instances, more that one TLR7 agonism or IL-6 induction assay was made; if so, the reported value is an average.
This example describes a method for assaying TLR7 agonist activity of the compounds disclosed in this specification.
HEK-Blue™ TLR7 cells were added to each well of a 384-well tissue-culture plate (15,000 cells per well) and incubated 16-18 h at 37° C., 5% CO2. Compounds (100 nl) were dispensed into wells containing the HEK-Blue™ TLR cells and the treated cells were incubated at 37° C., 5% CO2. After 18 h treatment ten microliters of freshly-prepared Quanti-Blue™ reagent (Invivogen) was added to each well, incubated for 30 min (37° C., 5% CO2) and SEAP levels measured using an Envision plate reader (OD=620 nm). […] EC50's can be determined with software such as Graphpad Prism™.
For orientation: A reporter such as luciferase makes a cellular process visible.

The next test concerns interleukin 6 (IL-6). Put plainly: Interleukin 6 induction assay in human whole blood (AlphaLISA). It counts as cell-based. The note with it: 20 h at 37° C., 100% set by resiquimod reference at 10 μM, average if more than one assay, read-out: IL-6 Induction EC50 (nM) (normalized 10 μM). An excerpt:
Table A presents biological activity data for compounds disclosed herein. One set of data relates TLR7 agonism activity using the HEK-Blue™ TLR7 reporter assay, as described in Example 11 hereinbelow. Another set of data relates to the induction of interleukin 6 (IL-6), a cytokine that plays an important role in the TLR7 pathway. […] In some instances, more that one TLR7 agonism or IL-6 induction assay was made; if so, the reported value is an average. This example describes a method for assaying interleukin 6 (IL 6) induction by compounds disclosed in this specification. Compounds suspended in DMSO were transferred to individual wells of a Matrix Technologies clear, V-bottom 384-well plate using ECHO acoustic liquid handling technology (25 nL per well). Human whole-blood samples (25 uL) were added to each well using a CyBio FeliX liquid handling instrument and the plate was shaken on a plate shaker for three minutes before incubating the reaction mixtures at 37° C. for 20 h. Basel RPMI 1640 medium (supplemented with L-glutamine) was then added to each well (25 uL per well) prior to liberating plasma from each sample by centrifugation (450×g, 5 min, ambient temperature). Treated plasma samples (3 uL) were subsequently transferred to individual wells of a white, shallow, 384-well ProxiPlate (PerkinElmer) using the FeliX liquid handling instrument and their IL6 levels were measured using AlphaLISA technology as described by the manufacturer (PerkinElmer).

SMILES strings stand for the structures. Like-named read-outs stand apart in the source and are kept apart here.

Data on 38 molecules can be found in US11485741B2, “Macrocyclic toll-like receptor 7 (TLR7) agonists” (BRISTOL-MYERS SQUIBB COMPANY, priority 2018, dated 2022).

Turning to `Nc1nc2nc3c1nc(O)n3Cc1ccc(Nc3cccc(CNC4CCC4)c3)c(c1)C/C=C/CCO2` [IId-01], the EC50 (usually the concentration that produces a half-maximal response) was found to be 15 nM on human TLR7 and 60 nM with interleukin 6 (IL-6) (Homo sapiens, 20 h).
On the same counts, the results for `Nc1nc2nc3c1nc(O)n3Cc1ccc(-c3ccc(CNC4CCC4)cc3)c(c1)CCCCCO2` [IIb-12] are 4.2 nM and 13 nM.
On the same counts, the results for `Nc1nc2nc3c1nc(O)n3Cc1ccc(-c3ccc(CNC4CCOCC4)cc3)c(c1)C/C=C\CCO2` [IIb-34] are 0.12 nM and 0.76 nM.
As to `Nc1nc2nc3c1nc(O)n3Cc1ccc(-c3cnn(CCNC4CC4)c3)c(c1)CCCCCO2` [IIb-03], the EC50 at human TLR7 turned out to be 2.9 nM; with interleukin 6 (IL-6) (Homo sapiens, 20 h), 65 nM.
For the molecule `Nc1nc2nc3c1nc(O)n3Cc1ccc(-c3ccc(CNC4CCC4)nc3)c(c1)C/C=C/CCO2` [IIb-05], the EC50 at human TLR7 worked out at 0.22 nM; in the test with interleukin 6 (IL-6) (Homo sapiens, 20 h) it was 0.62 nM.
In the case of `Nc1nc2nc3c1nc(O)n3Cc1ccc(-c3cn[nH]c3)c(c1)C/C=C/CCO2` [IIb-06], the EC50 on human TLR7 was determined as 21 nM; in the test with interleukin 6 (IL-6) (Homo sapiens, 20 h), 570 nM.
Consider `Nc1nc2nc3c1nc(O)n3Cc1ccc(-c3cccc(C(=O)NC4CNC4)c3)c(c1)C/C=C/CCO2` [IIb-31], for which the EC50 at human TLR7 amounted to 6.8 nM; in the test with interleukin 6 (IL-6) (Homo sapiens, 20 h) it was 28 nM.
As to `Nc1nc2nc3c1nc(O)n3Cc1ccc(-c3cnn(CCNC4CCC4)c3)c(c1)C/C=C/CCO2` [IIb-07], the EC50 amounted to 0.22 nM on human TLR7 and 1.6 nM with interleukin 6 (IL-6) (Homo sapiens, 20 h).
For `Nc1nc2nc3c1nc(O)n3Cc1cc(cc(Oc3ccc(CNC4CC4)cc3)c1)C/C=C\CCO2` [IIa-15], the EC50 at human TLR7 is 9.2 nM; with interleukin 6 (IL-6) (Homo sapiens, 20 h) it was 57 nM.
On the same counts, the results for `Nc1nc2nc3c1nc(O)n3Cc1ccc(O)c(c1)C/C=C/CCO2` [Compound B3, reference compound] are 68 nM and 400 nM.
Take `Nc1nc2nc3c1nc(O)n3Cc1cccc(c1)C/C=C\CCO2` [Compound B2, reference compound]: at human TLR7, the EC50 was found to be 33 nM.
Turning to `Nc1nc2nc3c1nc(O)n3Cc1ccc(Oc3cccc(C(=O)NC4CNC4)c3)c(c1)C/C=C\CCO2` [IIa-20], the EC50 at human TLR7 was 15 nM; with interleukin 6 (IL-6) (Homo sapiens, 20 h), 91 nM.
`Nc1nc2nc3c1nc(O)n3Cc1ccc(-c3cc(C(=O)NCCCN4CCCC4=O)[nH]n3)c(c1)C/C=C/CCO2` [IIb-40]: the EC50 was determined as 14 nM on human TLR7 and 160 nM in the test on interleukin 6 (IL-6) (Homo sapiens, 20 h).
With `Nc1nc2nc3c1nc(O)n3Cc1ccc(Oc3ccc(CNC4CC4)cc3)c(c1)C/C=C\CCO2` [IIa-04], the EC50 on human TLR7 is 0.91 nM; with interleukin 6 (IL-6) (Homo sapiens, 20 h), 4.4 nM.
Regarding `Nc1nc2nc3c1nc(O)n3Cc1ccc(-c3ccc(CNC4CC4)nc3)c(c1)C/C=C/CCO2` [IIb-04], the EC50 at human TLR7 was found to be 0.28 nM; with interleukin 6 (IL-6) (Homo sapiens, 20 h), 10 nM.
On the same counts, the results for `Nc1nc2nc3c1nc(O)n3Cc1ccc(-c3cnc(CNC4CCC4)s3)c(c1)C/C=C/CCO2` [IIb-13] are 0.24 nM and 4.3 nM.
For the molecule `Nc1nc2nc3c1nc(O)n3Cc1cccc(c1)C/C=C/CCO2` [Compound B1, reference compound], the concentration for a half-maximal effect (EC50) on human TLR7 stood at 210 nM.
Turning to `Nc1nc2nc3c1nc(O)n3Cc1ccc(Oc3cccc(CNC4CC4)c3)c(c1)C/C=C\CCO2` [IIa-05], the EC50 was 7.2 nM on human TLR7 and 18 nM with interleukin 6 (IL-6) (Homo sapiens, 20 h).
On the same counts, the results for `Nc1nc2nc3c1nc(O)n3Cc1ccc(-c3ccc(C(=O)NC4CNC4)cc3)c(c1)C/C=C/CCO2` [IIb-32] are 4.1 nM and 32 nM.
For the molecule `CC(=O)N1CC(NCc2ccc(-c3ccc4cc3C/C=C\CCOc3nc(N)c5nc(O)n(c5n3)C4)cc2)C1` [IIb-27], the EC50 came out at 0.62 nM on human TLR7 and 4 nM in the test with interleukin 6 (IL-6) (Homo sapiens, 20 h).
On the same counts, the results for `Nc1nc2nc3c1nc(O)n3Cc1ccc(O)c(c1)C/C=C\CCO2` [Compound B4, reference compound] are 17 nM and 960 nM.
For `Nc1nc2nc3c1nc(O)n3Cc1ccc(-c3ccc(CNC4CC(F)(F)C4)cc3)c(c1)C/C=C/CCO2` [IIb-25] the same measures were 1.5 nM and 0.81 nM.
As to `Nc1nc2nc3c1nc(O)n3Cc1ccc(-c3ccc(CNC4CCC4)cc3)c(c1)C/C=C\CCCO2` [IIb-17], the EC50 was determined as 0.91 nM at human TLR7 and 0.99 nM in the test on interleukin 6 (IL-6) (Homo sapiens, 20 h).
For `COCCNCc1ccc(Oc2ccc3cc2C/C=C/CCOc2nc(N)c4nc(O)n(c4n2)C3)cc1` [IIa-09] the same measures were 2.2 nM and 1.9 nM.
`Nc1nc2nc3c1nc(O)n3Cc1ccc(Oc3ccc(CNC4CC4)cc3)c(c1)CCCCCO2` [IIa-11]: the EC50 was 6.6 nM on human TLR7 and 5.5 nM with interleukin 6 (IL-6) (Homo sapiens, 20 h).
As to `Nc1nc2nc3c1nc(O)n3Cc1ccc(-c3cnn(CC(=O)NC4CNC4)c3)c(c1)C/C=C\CCO2` [IIb-39], the EC50 at human TLR7 came out at 1.6 nM.
For the molecule `Nc1nc2nc3c1nc(O)n3Cc1ccc(OC3CCNCC3)c(c1)C/C=C/CCO2` [IIc-01], the EC50 at human TLR7 was 3.7 nM; with interleukin 6 (IL-6) (Homo sapiens, 20 h), 5 nM.
`Nc1nc2nc3c1nc(O)n3Cc1ccc(-c3cc(CNC4CCC4)[nH]n3)c(c1)C/C=C/CCO2` [IIb-14]: the EC50 came out at 3 nM at human TLR7 and 5.3 nM in the test on interleukin 6 (IL-6) (Homo sapiens, 20 h).
Regarding `Nc1nc2nc3c1nc(O)n3Cc1ccc(-c3ccc(CNC4CC(O)C4)cc3)c(c1)C/C=C/CCO2` (stereo not shown) [IIb-24], the figures for the EC50 on human TLR7 and with interleukin 6 (IL-6) were 0.68 nM and 2.7 nM, respectively.
Take `Nc1nc2nc3c1nc(O)n3Cc1cc(cc(Oc3ccc(CNC4CCC4)cc3)c1)C/C=C\CCO2` [IIa-13]: the EC50 came out at 0.94 nM on human TLR7 and 13 nM in the test on interleukin 6 (IL-6) (Homo sapiens, 20 h).
Consider `Nc1nc2nc3c1nc(O)n3Cc1ccc(Oc3ccc(CO)cc3)c(c1)C/C=C/CCO2` [IIa-01], for which, at human TLR7, the EC50 came out at 51 nM.
As for `Nc1nc2nc3c1nc(O)n3Cc1ccc(-c3cnn(CCNC4CCC4)c3)c(c1)C/C=C\CCO2` [IIb-09], the EC50 on human TLR7 came out at 0.35 nM; with interleukin 6 (IL-6) (Homo sapiens, 20 h) it was 2.1 nM.
As to `Nc1nc2nc3c1nc(O)n3Cc1ccc(Oc3ccc(CNC4CCC4)cc3)c(c1)C/C=C\CCO2` [IIa-06], the EC50 was 1 nM on human TLR7 and 2.2 nM in the test with interleukin 6 (IL-6) (Homo sapiens, 20 h).
In the case of `Nc1nc2nc3c1nc(O)n3Cc1ccc(-c3ccc(CNC4COC4)cc3)c(c1)C/C=C\CCO2` [IIb-33], the EC50 on human TLR7 came out at 0.42 nM.
On the same count and under the same terms, next, `Nc1nc2nc3c1nc(O)n3Cc1ccc(-c3cnn(C4CNC4)c3)c(c1)C/C=C/CCO2` [IIb-35]: 1.5 nM.
Take `CCOCc1nc2c(N)nc3ccccc3c2n1CC(C)(C)O` [Resiquimod, resiquimod, reference compound]: the EC50 in the test on interleukin 6 (IL-6) (Homo sapiens, 20 h) worked out at 350 nM.
Regarding `Nc1nc2nc3c1nc(O)n3Cc1ccc(-c3cnn(C4CCNCC4)c3)c(c1)C/C=C/CCO2` [IIb-36], the EC50 at human TLR7 was found to be 1 nM.
Consider `Nc1nc2nc3c1nc(O)n3Cc1ccc(O)c(c1)CCCCCO2` [Compound B5, reference compound], for which, on human TLR7, the half-maximal effective concentration (EC50) was found to be 580 nM.
